# Patent US20250058002A1, “ELECTROCHEMICAL INHIBITION OF REDOX ACTIVE BACTERIA AND RELATED DEVICES, METHODS AND SYSTEMS” (priority 2023, published 2025)
# Like-named read-outs stand apart in the source and are kept apart here.
# What was measured:
# [1] = vs NHE at pH7; cited from earlier work
# PA14 [2] = assay: Redox cycles over 7 days and support of survival (Table 4); type: cell-based, P. aeruginosa
# Text: (§1) Phenazines and other redox active compound in the sense of the disclosure can be further characterized by various electrical properties such as a standard electrode potential E° vs. NHE of −500 mV to 500 mV and other properties such as number of redox cycle over a certain period of time (e.g. number of days) as ability to support survival and susceptibility to reduction by enzymes and/or bacterial strains.
# [3] = Midpoint potential E1/2 by voltammetry vs Ag/AgCl (3M KCl); type: physicochemical; conditions: for E1/2 (vs. Ag/AgCl (3M KCl))/mV: Example 15 table
# Method: The purified redox-active molecule can be dissolved in aqueous solution at appropriate concentration in the presence of supporting electrolyte and buffer to select the pH of measurement. For example, the redox-active molecule can be dissolved in 10 μM-10 mM concentrations in distilled, deionized water (DDW). The supporting electrolyte can be a salt such as NaCl or KCl at 0.01-0.5 M concentrations, for example, dissolved in DDW. The buffer can be 10 mM ammonium acetate/3-(N-morpholino)propanesulfonic acid at pH 7, or phosphate-buffered saline (PBS) at pH 7.4, or sodium acetate buffer at pH 5, or di-sodium hydrogen phosphate/potassium dihydrogen phosphate at pH 9, or boric acid/citric acid/trisodium phosphate for a wide range of pH values, for example.
# Voltammetric methods are then used to characterize the electrochemical behavior of the redox-active molecule in such solution, with a potentiostat such as a Gamry PC4-300, using a three-electrode setup with working electrode (glassy carbon, or platinum, or gold), counter electrode (platinum wire) and reference electrode (Ag/AgCl (3M KCl), or SCE, or NHE; values are reported relative to Ag/AgCl (3M KCl) which has potential +197 mV vs. NHE at 298K).
# For example, cyclic voltammetry may be used. In a cyclic voltammetry experiment phenazines will show a peak on the cathodic sweep (denoted Epc) corresponding to the reduction of the redox molecule.
# The reverse, anodic sweep will show a peak (denoted Epa) corresponding to the re-oxidation of the redox molecule. If the electrode reaction is diffusion-controlled and reversible, the cathodic and anodic peak currents will be equal in area, and the mid-point between these peaks may be taken as the formal reduction potential of the redox molecule under the experimental conditions used. This value can interchangeably be referred to as the “midpoint potential” or “mid-peak potential”, denoted E1/2.
# PYO was purified from aerobic bacterial cultures and was dissolved in 0.1 M KCl aqueous solution buffered with 10 mM ammonium acetate-3-(N-morpholino)propanesulfonic acid (5 mM each, pH 7) to yield a stock solution concentration of 829 μM PYO. Electrochemical measurements were performed with a Gamry PC4-300 potentiostat. A stationary gold disk electrode (BASi) was used as the working electrode, an Ag/AgCl electrode (RE-51, BASi) as the reference, and a straight platinum wire (BASi) was the counter electrode. Scans were performed between 20 and 500 mV/s in the potential range of around E1/2 (+/−300 mV), at 298 K.
# As described in en.wikipedia.org/wiki/Nernst_equation, the Nernst equation relates E1/2 measured at pH 7 to the E1/2 at a different pH by:
# [formula] • where E1/2 is in V • h is the number of protons transferred in the electrochemical reaction • e is the number of electrons transferred in the electrochemical reaction
# [4] = from Wang and Newman (2008), cited from earlier work
# [5] = Square wave voltammograms of electrode-attached biofilms; type: physicochemical; conditions: acquired immediately after transfer to anoxic reactors
# Method: FIG. 3: Electrochemical signal of wild type, Δphz*, and Δphz*+10 μM PYO showing PYO (E1/2=−250 mV vs Ag/AgCl) is the only redox active signal observed under these conditions and is retained by wild type biofilms. Square wave voltammograms acquired immediately after transfer to anoxic reactors.
# Square Wave Voltammograms. Potential was scanned from +100 mV to −500 mV vs Ag/AgCl and in reverse with the following parameters: pulse height=50 mV, pulse width=66.6 ms, step height=−0.5 mV, and acquisition of the average current over the last 50% of each step. Square wave voltammograms were acquired immediately after transfer from oxic to anoxic conditions.
# PA14 [6] = assay: Reduction of redox-active compound by PA14 (Table 4); type: cell-based, P. aeruginosa
# Text: as §1
# [7] = oxidized form; literature values (footnotes a, c, d); cited from earlier work
# Δphz* biofilms = assay: Anoxic survival (CFU) of electrode-attached phenazine-deficient biofilms at poised potential; type: cell-based, P. aeruginosa UCBPP-PA14; Δphz*; conditions: 10 μM PYO added, PYO-reductive conditions
# Method: Electrochemical reactors and biofilm growth. Double-jacketed electrochemical reactors (Pine Instruments, 250 ml, wide center port 29/26) were used with ITO-coated 0.2 mm thick boro-aluminosilicate glass slides (Delta Technologies, 24×60 mm, Rs=7-10Ω) as working electrodes, freshly sanded graphite rods (Alfa Aesar) as counter electrodes, and Ag/AgCl in 3M KCl reference electrodes (BASi). Silver epoxy (Electron Microscopy Sciences) was used to make electrical connection between insulated wire ([…]) and working electrode and was insulated using 5 Minute® expoxy (Devcon). Working electrodes were assembled within 5 hours of use. Reactors were sterilized by autoclaving without reference or working electrodes, which were sterilized by submerging in 10% bleach for 5 minutes or 30 seconds, respectively, and rinsed in sterile water. Individual mid-log liquid cultures (OD600 0.45-0.55) were used to inoculate sterile reactors containing 140 ml of MM (described above) with 0.1% (vol/vol) for each biological replicate. Antibiotics were not added at this point. Working electrodes were poised at either open circuit, +100 mV, or −400 mV vs. Ag/AgCl (+310 mV and −190 mV vs the standard hydrogen electrode, respectively). Reactors were aerated using an aquarium pump with a 0.2 μm filter (Thermo Scientific) and heated to 31° C. using a circulating water bath (Haake A 25, Thermo Scientific). Fresh medium was exchanged every 24 hours for 5 days. After 5 days of aerobic growth, working electrode-attached biofilms were rinsed in sterile medium to remove planktonic cells and transferred to sterile reactors with fresh MM previously flushed for 2 hours with N2 ultra-high purity gas (NRL supply store). For antibiotic exposure experiments, antibiotics were added to sterile media before flushing with N2. […]
# Biofilm harvesting and processing. […] SYTO-60 was excited with a 561 nm; 0.20% laser and emission was recorded from 580-700 nm. TOTO-1 was excited with a 488 nm; 0.20% laser and emission was recorded from 490 to 580 nm.
# [8] = system: P. aeruginosa PA14 liquid cultures; assay: Toxicity of reduced PYO to liquid-grown cells under anoxic conditions; type: cell-based; conditions: 1, 10, and 100 μM reduced PYO, 30 minutes, normalized to untreated
# Method: FIG. 8: Toxicity of reduced PYO to liquid-grown cells. Exposure of mid-log aerobic P. aeruginosa PA14 liquid cultures to 1, 10, and 100 μM reduced PYO under anoxic conditions. Triplicate data shown normalized to untreated samples with line at mean.
# Treatment of liquid cultures with reduced PYO. 100 μM PYO in MM was reduced electrochemically using a dual-chamber reactor with an cation exchange membrane (CMI-7000, Membranes International) to avoid re-oxidation of PYO at the counter electrode. […] chamber contained Ag/AgCl reference electrode, platinum mesh working electrode, and was flushed with N2; while […] chamber was oxic and contained platinum mesh counter electrode. PYO reduction was carried out by poising the working electrode at −400 mV vs. Ag/AgCl for 24 hours, past the point of 100% PYO reduction based on coulombic efficiency, and biochemical reactor was then transferred into the anaerobic chamber. Anoxic vials with pre-equilibrated MM and corresponding concentrations of reduced PYO were then treated with biochemical O2 scavenging system (10 mM glucose+375 nM glucose oxidase+750 nM catalase) for an hour before inoculation. Aerobic liquid cultures of P. aerughnosa in MM at mid-log (OD600=0.5) were spun down and resuspended in fresh media and used to inoculate assays with 10% (vol/vol). […]
compound,measurement,setting,value
"Cn1c2cccc(=O)c-2nc2ccccc21 [Pyocyanin (PYO), Pyocyanin]",Redox potentials E (mV),[1],−34 mV
same,Support survival?,PA14 [2],Yes
same,# of Redox cycles over 7 days,PA14 [2]; over 7 days,31
same,E1/2 (vs. Ag/AgCl (3M KCl))/mV,[3]; pH 5,−128 mV
same,E1/2 estimated vs. Ag/AgCl (3M KCl),"[3]; pH 6, estimated",−178 mV
same,E1/2 (vs. Ag/AgCl (3M KCl))/mV,[3]; pH 6,−189 mV
same,E1/2 vs. Ag/AgCl (3M KCl),"[3]; pH 7, 298 K, 0.1 M KCl, gold disk working electrode",−237 mV
same,E1/2 vs. NHE,"[3]; pH 7, 298 K, corrected to NHE by adding 197 mV",−40 mV
same,E1/2 (vs. Ag/AgCl (3M KCl))/mV,[3]; pH 7,−237 mV
same,E1/2 estimated by Nernst equation,"[3]; pH 8, estimated from pH 7 value",−296 mV
same,E1/2 (vs. Ag/AgCl (3M KCl))/mV,[3]; pH 8,−300 mV
same,E1/2 (vs. Ag/AgCl (3M KCl))/mV,[4]; pH 5,−128 mV
same,E1/2 (vs. Ag/AgCl (3M KCl))/mV,[4]; pH 6,−189 mV
same,E1/2 (vs. Ag/AgCl (3M KCl))/mV,[4]; pH 7,−237 mV
same,E1/2 (vs. Ag/AgCl (3M KCl))/mV,[4]; pH 8,−300 mV
same,E1/2 vs Ag/AgCl in biofilm square wave voltammograms,[5],−250 mV
same,Reduction by PA14?,PA14 [6],Yes
same,E0' (vs. NHE) (mV),[7],−40^a mV
same,effect of PYO addition on Δphz* biofilm CFUs (in words),Δphz* biofilms; listed as PYO,sensitized under PYO-reductive conditions
same,effect of PYO addition on Δphz* biofilm CFUs (in words),Δphz* biofilms; listed as pyocyanin,re-sensitized
CN1c2ccccc2Nc2c(O)cccc21 [reduced PYO],decrease in CFUs of liquid cultures,[8],two- to threefold decrease in CFUs
